For test [1], the target named is T1, DDR1 (Homo sapiens, UniProt Q08345).
T1 construct: purchased Reaction Biology
Nature of the test: HotSpot radiometric kinase assay (Reaction Biology), DDR1. The conditions noted are these: 200 nM kinase, substrate IRS1tide 20 μM, 33P-ATP, 120 minutes at room temperature. It is filed as biochemical. As for the experimental part: (§1) The compounds were profiled in the HotSpot radiometric assays (Reaction Biology).
Briefly, • 1. Substrate indicated in Table 1 was dissolved in freshly prepared reaction buffer (20 mM HEPES (pH 7.5), 10 mM MgCl2, 1 mM EGTA, 0.01% Brij35, 0.02 mg/ml BSA, 0.1 mM Na3VO4, 2 mM DTT, 1% DMSO) at the concentration indicated in Table 1. • 2. Corresponding kinase (concentration indicated in Table 1) was added and the mixture was gently mixed. • 3. Tested compound dissolved in DMSO was added into the kinase reaction mixture. • 4. ^33P-ATP (specific activity 0.01 μCi/μL final) was added into the reaction mixture to initiate the reaction. • 5. The kinase reaction was incubated for 120 minutes at room temperature. • 6. […] The radioactive phosphorylated substrate remaining on the filter paper was measured.
(§2) Kinase activity data were expressed as the percent remaining kinase activity in tested samples compared to the vehicle (DMSO) reactions. IC50 values and curve fits were obtained using Prism4 Software (GraphPad).

For test [2], the target named is T2, FLT3 (Homo sapiens, UniProt P36888).
T2 construct: purchased Reaction Biology
T2 sequence (P36888 27-993): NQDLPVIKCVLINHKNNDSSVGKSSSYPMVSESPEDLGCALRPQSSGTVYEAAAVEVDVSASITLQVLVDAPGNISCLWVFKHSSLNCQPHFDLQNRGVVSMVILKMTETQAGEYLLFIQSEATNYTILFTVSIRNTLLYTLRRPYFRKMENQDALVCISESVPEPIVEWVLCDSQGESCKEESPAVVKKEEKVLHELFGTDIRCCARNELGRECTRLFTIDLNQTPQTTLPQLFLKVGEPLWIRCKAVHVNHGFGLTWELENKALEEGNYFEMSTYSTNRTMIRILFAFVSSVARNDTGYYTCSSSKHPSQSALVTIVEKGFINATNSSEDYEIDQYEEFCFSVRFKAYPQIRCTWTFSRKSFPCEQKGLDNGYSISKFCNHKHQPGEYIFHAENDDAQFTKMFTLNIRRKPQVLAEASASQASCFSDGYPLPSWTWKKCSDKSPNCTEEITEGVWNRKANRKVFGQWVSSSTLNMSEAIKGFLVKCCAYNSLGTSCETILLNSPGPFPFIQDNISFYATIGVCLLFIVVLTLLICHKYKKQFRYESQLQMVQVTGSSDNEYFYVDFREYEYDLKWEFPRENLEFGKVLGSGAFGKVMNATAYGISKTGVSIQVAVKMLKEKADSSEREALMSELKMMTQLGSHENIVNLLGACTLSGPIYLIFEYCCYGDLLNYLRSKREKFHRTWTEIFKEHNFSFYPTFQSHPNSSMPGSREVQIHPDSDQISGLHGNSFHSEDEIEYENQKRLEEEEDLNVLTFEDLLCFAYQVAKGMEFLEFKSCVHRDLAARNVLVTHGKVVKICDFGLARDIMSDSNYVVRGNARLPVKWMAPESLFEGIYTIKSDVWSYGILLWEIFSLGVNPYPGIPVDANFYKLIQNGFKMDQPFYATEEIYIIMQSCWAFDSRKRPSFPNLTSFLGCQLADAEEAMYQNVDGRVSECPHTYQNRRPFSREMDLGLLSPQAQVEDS
As to the kind of experiment: HotSpot radiometric kinase assay (Reaction Biology), FLT3. The test is classed as biochemical. The conditions noted are these: 4 nM kinase, substrate ABLtide 20 μM, 33P-ATP, 120 minutes at room temperature. As to the method: as §1
Briefly, • 1. Substrate indicated in Table 1 was dissolved in freshly prepared reaction buffer (20 mM HEPES (pH 7.5), 10 mM MgCl2, 1 mM EGTA, 0.01% Brij35, 0.02 mg/ml BSA, 0.1 mM Na3VO4, 2 mM DTT, 1% DMSO) at the concentration indicated in Table 1. • 2. Corresponding kinase (concentration indicated in Table 1) was added and the mixture was gently mixed. • 3. Tested compound dissolved in DMSO was added into the kinase reaction mixture. • 4. ^33P-ATP (specific activity 0.01 μCi/μL final) was added into the reaction mixture to initiate the reaction. • 5. The kinase reaction was incubated for 120 minutes at room temperature. • 6. Reaction mixture was spotted onto P81 ion exchange paper (Whatman K 3698-915). • 7. The filters were extensively washed with […]. • 7. The radioactive phosphorylated substrate remaining on the filter paper was measured.
as §2
Table 2 summarizes the inhibitory activities of indicated compounds tested in the in vitro kinase assays described above.

T1 sequence (Q08345 19-913): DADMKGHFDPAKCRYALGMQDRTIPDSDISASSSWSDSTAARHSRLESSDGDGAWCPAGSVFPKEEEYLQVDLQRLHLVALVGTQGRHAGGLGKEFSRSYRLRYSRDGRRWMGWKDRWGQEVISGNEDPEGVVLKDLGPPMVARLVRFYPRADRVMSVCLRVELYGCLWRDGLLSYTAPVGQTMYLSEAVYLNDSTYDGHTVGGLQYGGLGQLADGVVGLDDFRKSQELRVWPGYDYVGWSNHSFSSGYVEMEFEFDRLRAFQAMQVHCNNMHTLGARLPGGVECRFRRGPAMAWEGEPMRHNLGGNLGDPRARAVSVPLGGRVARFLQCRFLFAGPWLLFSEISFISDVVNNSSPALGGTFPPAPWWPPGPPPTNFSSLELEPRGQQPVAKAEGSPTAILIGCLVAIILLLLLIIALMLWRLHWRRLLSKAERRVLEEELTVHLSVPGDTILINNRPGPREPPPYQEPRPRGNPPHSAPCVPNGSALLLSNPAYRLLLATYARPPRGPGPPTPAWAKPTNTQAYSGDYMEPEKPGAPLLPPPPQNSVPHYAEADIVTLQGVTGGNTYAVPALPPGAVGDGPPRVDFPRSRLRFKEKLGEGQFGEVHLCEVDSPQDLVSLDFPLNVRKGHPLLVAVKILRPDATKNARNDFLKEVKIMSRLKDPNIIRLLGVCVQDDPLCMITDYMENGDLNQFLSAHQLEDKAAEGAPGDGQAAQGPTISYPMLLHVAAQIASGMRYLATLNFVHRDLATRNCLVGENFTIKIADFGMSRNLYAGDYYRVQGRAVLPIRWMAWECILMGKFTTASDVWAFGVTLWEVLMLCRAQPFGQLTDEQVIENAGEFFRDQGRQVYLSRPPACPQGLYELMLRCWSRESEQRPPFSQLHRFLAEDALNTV

The term IC50 denotes the concentration that gives 50% inhibition. A higher IC50 goes with weaker potency. For `FC(F)(F)Oc1cccc(-c2coc3cc(-c4ccc(N5CCNCC5)cc4)cnc23)c1` [Preparative Example 113, 6-(4-(piperazin-1-yl)phenyl)-3-(3-(trifluoromethoxy)phenyl)furo[3,2-b]pyridine], the IC50 in test [1] worked out at 869 nM; in test [2], 649 nM.
On to `FC(F)(F)COc1cccc(-c2coc3cc(-c4ccc(N5CCNCC5)cc4)cnc23)c1` [Preparative Example 116, 6-(4-(piperazin-1-yl)phenyl)-3-(3-(2,2,2-trifluoroethoxy)phenyl)furo[3,2-b]pyridine], for which the half-maximal inhibitory concentration (IC50) in test [1] is 673 nM; in test [2], 353 nM.
As for `CS(=O)(=O)NCc1cccc(-c2coc3cc(-c4ccc(N5CCNCC5)cc4)cnc23)c1` [Preparative Example 125, N-(3-(6-(4-(piperazin-1-yl)phenyl)furo[3,2-b]pyridin-3-yl)benzyl)methanesulfonamide], the 50% inhibitory concentration (IC50) in test [1] was determined as 198 nM; in test [2], 21 nM.
The matching figures for `CN(C)c1cccc(-c2coc3cc(-c4ccc(N5CCNCC5)cc4)cnc23)c1` [Preparative Example 131, N,N-dimethyl-3-(6-(4-(piperazin-1-yl)phenyl)furo[3,2-b]pyridin-3-yl)aniline]: 385 nM and 345 nM.
The matching figures for `CN1CCN(c2ccc(-c3cnc4c(-c5cccc(C(=O)c6ccccc6)c5)coc4c3)cc2)CC1` [Preparative Example 133, (3-(6-(4-(4-methylpiperazin-1-yl)phenyl)furo[3,2-b]pyridin-3-yl)phenyl)(phenyl)methanone]: 472 nM and 269 nM.
Take `CN1CCN(c2ccc(-c3cnc4c(-c5cccc(CNC(=O)OC(C)(C)C)c5)coc4c3)cc2)CC1` [Preparative Example 135, tert-butyl (3-(6-(4-(4-methylpiperazin-1-yl)phenyl)furo[3,2-b]pyridin-3-yl)benzyl)carbamate]: the IC50 in test [1] was 423 nM; in test [2], 350 nM.
Regarding `CC(=O)NCc1cccc(-c2coc3cc(-c4ccc(N5CCN(C)CC5)cc4)cnc23)c1` [Preparative Example 137, N-(3-(6-(4-(4-methylpiperazin-1-yl)phenyl)furo[3,2-b]pyridin-3-yl)benzyl)acetamide], the results for the IC50 in test [1] and in test [2] were 206 nM and 78 nM, respectively.
On the same counts, the results for `CCNS(=O)(=O)Cc1cccc(-c2coc3cc(-c4ccc(N5CCN(C)CC5)cc4)cnc23)c1` [Preparative Example 141, N-ethyl-1-(3-(6-(4-(4-methylpiperazin-1-yl)phenyl)furo[3,2-b]pyridin-3-yl)phenyl)methanesulfonamide] are 763 nM and 805 nM.
The matching figures for `CN1CCN(c2ccc(-c3cnc4c(-c5cccc(CS(=O)(=O)N(C)C)c5)coc4c3)cc2)CC1` [Preparative Example 145, N,N-dimethyl-1-(3-(6-(4-(4-methylpiperazin-1-yl)phenyl)furo[3,2-b]pyridin-3-yl)phenyl)methane-sulfonamide]: 773 nM and 118 nM.
For `CSc1cccc(-c2coc3cc(-c4ccc(N5CCN(C)CC5)cc4)cnc23)c1` [Preparative Example 147, 6-(4-(4-methylpiperazin-1-yl)phenyl)-3-(3-(methylthio)phenyl)furo[3,2-b]pyridine], the values for the IC50 in test [1] and in test [2] were 236 nM and 203 nM, respectively.
For the compound `CCNC(=O)Cc1cccc(-c2coc3cc(-c4ccc(N5CCNCC5)cc4)cnc23)c1` [Preparative Example 152, N-ethyl-2-(3-(6-(4-(piperazin-1-yl)phenyl)furo[3,2-b]pyridin-3-yl)phenyl)acetamide], the IC50 in test [1] amounted to 73 nM; in test [2] it was 24 nM.
Turning to `CN1CCN(c2ccc(-c3cnc4c(-c5cccc(CC(N)=O)c5)coc4c3)cc2)CC1` [Preparative Example 154, 2-(3-(6-(4-(4-methylpiperazin-1-yl)phenyl)furo[3,2-b]pyridin-3-yl)phenyl)acetamide], the IC50 was found to be 157 nM in test [1] and 22 nM in test [2].
With `CC(=O)c1cc(-c2coc3cc(-c4ccc(N5CCN(C)CC5)cc4)cnc23)ccn1` [Preparative Example 156, 1-(4-(6-(4-(4-methylpiperazin-1-yl)phenyl)furo[3,2-b]pyridin-3-yl)pyridin-2-yl)ethan-1-one], the IC50 turned out to be 734 nM in test [1] and 46 nM in test [2].
On the same counts, the results for `c1ccc(-c2ccccc2-c2coc3cc(-c4ccc(N5CCNCC5)cc4)cnc23)cc1` [Preparative Example 161, 3-([1,1′-biphenyl]-2-yl)-6-(4-(piperazin-1-yl)phenyl)furo[3,2-b]pyridine] are 209 nM and 832 nM.
The matching figures for `CCCCOC(=O)c1cccc(-c2coc3cc(-c4ccc(N5CCNCC5)cc4)cnc23)c1` [Preparative Example 167, butyl 3-(6-(4-(piperazin-1-yl)phenyl)furo[3,2-b]pyridin-3-yl)benzoate]: 305 nM and 37 nM.
Consider `c1cc(-c2coc3cc(-c4ccc(OCCN5CCCCC5)cc4)cnc23)ccn1` [Preparative Example 171, 6-(4-(2-(piperidin-1-yl)ethoxy)phenyl)-3-(pyridin-4-yl)furo[3,2-b]pyridine], for which the IC50 is 365 nM in test [1] and 21 nM in test [2].
Take `CN1CCN(c2ccc(-c3cnc4c(-c5ccccc5)coc4c3)cc2)CC1` [Preparative Example 172, 6-(4-(4-methylpiperazin-1-yl)phenyl)-3-phenylfuro[3,2-b]pyridine]: the values for the IC50 in test [1] and in test [2] were 141 nM and 33 nM, respectively.
The matching figures for `CN1CCN(c2ccc(-c3cnc4c(-c5cccc(S(C)(=O)=O)c5)coc4c3)cc2)CC1` [Preparative Example 175, 6-(4-(4-methylpiperazin-1-yl)phenyl)-3-(3-(methylsulfonyl)phenyl)furo[3,2-b]pyridine]: 290 nM and 225 nM.
The matching figures for `CN1CCN(c2ccc(-c3cnc4c(-c5cccc([S+](C)[O-])c5)coc4c3)cc2)CC1` (centres unmarked) [Preparative Example 181, 6-(4-(4-methylpiperazin-1-yl)phenyl)-3-(3-(methylsulfinyl)phenyl)furo[3,2-b]pyridine]: 284 nM and 99 nM.
On the same counts, the results for `CN1CCN(c2ccc(-c3cnc4c(Cc5ccccc5)coc4c3)cc2)CC1` [Preparative Example 186, 3-benzyl-6-(4-(4-methylpiperazin-1-yl)phenyl)furo[3,2-b]pyridine] are 620 nM and 373 nM.
As to `Cc1c(-c2ccc(N3CCN(C)CC3)cc2)cnc2c(-c3ccccc3)coc12` [Preparative Example 188, 7-methyl-6-(4-(4-methylpiperazin-1-yl)phenyl)-3-phenylfuro[3,2-b]pyridine], the 50% inhibitory concentration (IC50) was 186 nM in test [1] and 147 nM in test [2].
Turning to `Cc1oc2cc(-c3ccc(N4CCN(C)CC4)cc3)cnc2c1-c1ccccc1` [Preparative Example 196, 1-methyl-4-(4-{2-methyl-3-phenylfuro[3,2-b]pyridin-6-yl}phenyl)piperazine], the IC50 was 148 nM in test [1] and 96 nM in test [2].

(Values after patent US20250352550A1, “SUBSTITUTED FUROPYRIDINES FOR THERAPEUTIC USE” (MASARYKOVA UNIVERZITA, priority 2022, published 2025).)
